Patent publication US8895548B2, “Pharmaceutical composition for treating alzheimer's disease” (Shionogi & Co., Ltd., priority 2007, dated 2014)

Tested on: brain β amyloid 1-40
Experiment: Lowering effect on brain β amyloid in rats
Format: in vivo
Settings: male Crg:SD rat, 10 mg/kg orally, brain isolated 3 hours after administration
Procedure: (§1) A test compound was suspended in 0.5% methylcellulose, the final concentration was adjusted to 2 mg/mL, and this was orally administered to male Crg:SD rat (7 to 9 week old) at 10 mg/kg. In a vehicle control group, only 0.5% methylcellulose was administered, and an administration test was performed at 3 to 8 animals per group. A brain was isolated 3 hours after administration, a cerebral hemisphere was isolated, a weight thereof was measured, the hemisphere was rapidly frozen in liquid nitrogen, and stored at −80° C. until the day for extraction. The frozen cerebral hemisphere was transferred to a homogenizer manufactured by Teflon (registered trade mark) under ice cooling, a 5-fold volume of a weight of an extraction buffer (containing 1% CHAPS ({3-[(3-chloroamidopropyl)dimethylammonio]-1-propanesulfonate}), 20 mM Tris-HCl (pH 8.0), 150 mM NaCl, Complete (Roche) protease inhibitor) was added, up and down movement was repeated, and this was homogenized to solubilize for 2 minutes. The suspension was transferred to a centrifugation tube, allowed to stand on an ice for 3 hours or more and, thereafter centrifuged at 100,000×g and 4° C. for 20 minutes. After centrifugation, the supernatant was transferred to an ELISA plate (product No. 27730, Immuno-Biological Laboratories) for measuring 3 amyloid 1-40. ELISA measurement was performed according to the attached instruction. The lowering effect was calculated as a ratio compared to the brain b amyloid 1-40 level of vehicle control group.

Structure (SMILES)	brain β amyloid 1-40, % of vehicle control group
COc1cnc(C(=O)Nc2ccc(F)c([C@]3(C)CCSC(N)=N3)c2)cn1 [Compound 634]	21.1 % of vehicle control group
Cc1cnc(C(=O)Nc2ccc(F)c([C@]3(C)CCSC(N)=N3)c2)cn1 [Compound 622]	50.1 % of vehicle control group

Same assay, conditions: po; male Crg:SD rat, 10 mg/kg orally, brain isolated 3 hours after administration, ELISA; read-out: reduction of brain β amyloid 1-40 compared to vehicle control group

Structure (SMILES)	inhibition in vivo at 10 mg/kg
Cc1cc(C(=O)Nc2ccc(F)c(C3(C)CCSC(N)=N3)c2)c(C)o1 (centres unmarked) [Compound 1282]	60 to 90%
Cc1cnc(C(=O)Nc2ccc(F)c(C3(C)CCSC(N)=N3)c2)cn1 (centres unmarked) [Compound 359]	60 to 90%
CC1(c2cccc(NC(=O)c3ccc(F)cn3)c2)CCSC(N)=N1 (centres unmarked) [Compound 212]	60 to 90%
C[C@@]1(c2cccc(NC(=O)c3ncc(Cl)cc3Cl)c2)CCSC(N)=N1 [Compound 39]	60 to 90%
CC1(c2cccc(NC(=O)c3ccc(Cl)cn3)c2)CCSC(N)=N1 (centres unmarked) [Compound 793]	60 to 90%
C[C@@]1(c2cccc(NC(=O)c3cnc(O)cn3)c2)CCSC(N)=N1 [Compound 733]	60 to 90%
COc1cnc(C(=O)Nc2cccc(C3(C)CCSC(N)=N3)c2)cn1 (centres unmarked) [Compound 243]	60 to 90%
CC1(c2cc(NC(=O)c3ncc(Cl)cn3)ccc2F)CCSC(N)=N1 (centres unmarked) [Compound 204]	60 to 90%
CC1(c2cccc(NC(=O)c3ncc(C(F)(F)F)cc3Cl)c2)CCSC(N)=N1 (centres unmarked) [Compound 482]	60 to 90%

Tested on: brain β amyloid 1-40
Experiment: Lowering effect on brain β amyloid in mice
Format: in vivo
Settings: sc; male Crlj:CD-1(ICR) mouse, 100 mg/kg subcutaneously, brain isolated 3 hours after administration, ELISA; read-out: reduction of brain β amyloid 1-40 compared to vehicle control group
Procedure: as §1
A test compound was suspended in 0.5% methylcellulose, the final concentration was adjusted to 10 mg/mL, and this was subcutaneously administered to back of male Crlj:CD-1(ICR) mouse (7 to 8 week old) at 100 mg/kg. In a vehicle control group, only 0.5% methylcellulose was administered. A test was performed at 4 to 8 animals per group. A brain was isolated 3 hours after administration. The subsequent operations were the same as in the above test in rat.

Structure (SMILES)	inhibition in vivo at 100 mg/kg
CC1(c2cc(Cl)cc(NC(=O)c3ccc(Cl)cn3)c2)CCSC(N)=N1 (centres unmarked) [Compound 739]	60 to 90%
CC1(c2cccc(NC(=O)c3cnc(N=[N+]=N)cn3)c2)CCSC(N)=N1 (centres unmarked) [Compound 1266]	60 to 90%
CC1(c2cccc(NC(=O)c3ncc(Br)cn3)c2)CCSC(N)=N1 (centres unmarked) [Compound 900]	60 to 90%
CC1(c2cc(NC(=O)c3ccc(Cl)cn3)cc(C(F)(F)F)c2)C=C(N)SCC1 (centres unmarked) [Compound 964]	60 to 90%
CC1(c2cc(Br)cc(NC(=O)c3ccc(Cl)cn3)c2)CCSC(N)=N1 (centres unmarked) [Compound 165]	60 to 90%
CC1(c2cc(Br)cc(NC(=O)c3ccc(Br)cc3)c2)CCSC(N)=N1 (centres unmarked) [Compound 1262]	60 to 90%
CC1(c2cc(Br)cc(NC(=O)c3cc4ccccc4s3)c2)CCSC(N)=N1 (centres unmarked) [Compound 1014]	60 to 90%
CC1(c2cccc(C(=O)Nc3ccc(Cl)cn3)c2)CCSC(N)=N1 (centres unmarked) [Compound 220]	60 to 90%
Cc1cnc(C(=O)Nc2cccc(C3(C)CCSC(N)=N3)c2)cn1 (centres unmarked) [Compound 309]	60 to 90%

Same assay, conditions: sc; male Crlj:CD-1(ICR) mouse, 100 mg/kg subcutaneously, brain isolated 3 hours after administration; read-out: brain β amyloid 1-40, % of vehicle control group

Structure (SMILES)	response vs control in vivo at 100 mg/kg
CC1(c2cc(NC(=O)c3ccc(Cl)cn3)ccc2Cl)CCSC(N)=N1 (centres unmarked) [Compound 1199]	14.1%
CC1(c2cc(NC(=O)c3ccc(C(F)(F)F)cn3)ccc2F)CCSC(N)=N1 (centres unmarked) [Compound 396]	38.4%
CC1(c2cc(NC(=O)c3ccc(Cl)cn3)ccc2F)CCSC(N)=N1 (centres unmarked) [Compound 1043]	15%
CC1(c2cc(NC(=O)c3ccc(F)cn3)ccc2F)CCSC(N)=N1 (centres unmarked) [Compound 605]	36.5%
CC1(c2cccc(NC(=O)c3ccc(C(F)(F)F)cn3)c2)CCSC(N)=N1 (centres unmarked) [Compound 1244]	50.1%
CC1(c2cccc(NC(=O)c3ncc(Cl)cc3Cl)c2)CCSC(N)=N1 (centres unmarked) [Compound 127]	25.2%

Tested on: not given
Experiment: not given
Settings: not given

melting point	Structure (SMILES)
148 to 150 °C	C[C@@]1(C2C=C(NC(=O)c3ncc(Cl)cc3N)C=CC2)CCSC(N)=N1 (some centres unmarked) [Compound 743]
152 to 153 °C	CC1(C2C=C(/C=N/OCc3cccnc3)C=CC2)CCSC(N)=N1 (centres unmarked) [Compound 584]
167 to 170 °C	CCS/C(N)=N\C(C)C1C=C(NC(=O)c2cnc3ccccc3n2)C=CC1 (centres unmarked) [Compound 1115]
141 to 142 °C	COc1ccc([C@@]2(C)C[C@H](C)SC(N)=N2)cc1 [Compound 86]
169 to 170 °C	CC1(c2ccc(OC3C=CC=CC3)cc2)CCSC(N)=N1 (centres unmarked) [Compound 1055]
214 to 217 °C	COc1ccc([C@]2(C)N=C(N)SC[C@H]2C)cc1 [Compound 8]
185 to 187 °C	CC1(c2cc(NC(=O)c3ccc(Cl)cn3)cc(C(F)(F)F)c2)C=C(N)SCC1 (centres unmarked) [Compound 964]
132 to 134 °C	CC1(c2ccc(F)c(C(=O)NC3=CC(Cl)CC=N3)c2)CCSC(N)=N1 (centres unmarked) [Compound 1068]
223 to 225 °C	CC1(C2=CC=CCC2)CCCSC(N)=N1.Cl (centres unmarked)
161 to 165 °C	C[C@]1(c2ccccc2)C[C@@H](c2ccccc2)SC(N)=N1.Cl
290 to 295 °C	CC1(c2ccc(F)c(N3N=C4c5cc(Cl)ccc5NCC4C3=O)c2)CCSC(N)=N1 (centres unmarked) [Compound 1166]
219 to 222 °C	CC1(C2=CC=C(F)CC2)CCCSC(N)=N1.Cl (centres unmarked)
164 to 187 °C	COC(=O)c1cc(C(=O)Nc2cccc(C3(C)CCSC(N)=N3)c2)nn1C (centres unmarked) [Compound 687]
204 to 208 °C	CC1(c2cccc(NC(=O)c3ncc(Cl)cn3)c2)CCSC(N)=N1 (centres unmarked) [Compound 515]
155 to 158 °C	CC1(c2cccc(CO)c2)CCSC(N)=N1 (centres unmarked) [Compound 501]
91 to 96 °C	CC1(c2cccc(NC(=O)C3CN=CC=N3)c2)CCSC(N)=N1 (centres unmarked) [Compound 164]
162 to 165 °C	Cc1ccc(OC2=CCC(C3(C)CCSC(N)=N3)C=C2)cc1 (centres unmarked) [Compound 1067]
139 to 140 °C	C[C@]1(c2ccccc2)C[C@H](c2ccccc2)SC(N)=N1 (racemic) [Compound 835]
205 to 206 °C	CC1(c2ccccc2)CCN=C(N)S1.Cl (centres unmarked) [Compound 783]
187 to 190 °C	C[C@@]1(c2cc(NC(=O)c3n[nH]c4ccccc34)ccc2F)CCSC(N)=N1 [Compound 241]

Tested on: brain β amyloid 1-40
Experiment: Lowering effect on brain β amyloid in mice
Format: in vivo
Settings: sc; male Crlj:CD-1(ICR) mouse, 3 hours after 30 mg/kg of subcutaneous administration; read-out: brain β amyloid 1-40, % of vehicle control group

Structure (SMILES)	response vs control in vivo at 30 mg/kg
CC1(c2cccc(NC(=O)c3ccc(C#N)cn3)c2)CCSC(N)=N1 (centres unmarked) [Compound 651]	52.3%
